Like-named read-outs stand apart in the source and are kept apart here.
What was measured:
Type in all cases: cell-based
[1] = tested on: Acinetobacter calcoaceticus; assay: MIC, 2-fold dilution method in micro-well plate, A. calcoaceticus
Protocol: (§1) The in vitro antibiotic activity of the present compound is measured using 2-fold dilution method with a micro-well plate and the bacteria are inoculated in about 10^5 cfu/ml after an overnight culture in a brain-heart infusion (BHI) broth at 37° C. The novel compounds of the present invention are converted to a hydrochloride salt form and diluted with a sterilized distilled water to make 10 mg/ml aqueous solution. After the mother liquor wherein the compound is diluted to the two-fold concentration has been obtained in the form of an aqueous solution, the respective 0.1 ml of diluted liquor is transferred to a well and is inoculated with 0.1 ml of the culture fluid to make about (10^5 -10^6)/2 cfu/ml.
(§2) After cultivation at 37° C., the minimum inhibitory concentration (MIC) is measured and recorded in Table I-V.
Table I-V show the minimum inhibitory concentrations (MIC). […]

[2] = tested on: Citrobacter freundii ATCC 8090; assay: MIC, 2-fold dilution method in micro-well plate, C. freundii
Protocol: as §1, §2
(§3) Table I-V show the minimum inhibitory concentrations (MIC).
Citrobacter freundii ATCC 8090

[3] = tested on: Enterobacter aerogenes ATCC 13048; assay: MIC, 2-fold dilution method in micro-well plate, E. aerogenes; settings: Klebsiella aerogenes
Protocol: as §1, §2, §3
Enterobacter aerogenes ATCC 13048

Enterobacter cloacae = assay: MIC, 2-fold dilution method in micro-well plate, E. cloacae; settings: read-out: Minimum Inhibitory Concentration
Protocol: as §1, §2, §3
Enterobacter cloacae ATCC 23355

[4] = tested on: Escherichia coli ATCC 25922; assay: MIC, 2-fold dilution method in micro-well plate, E. coli
Protocol: as §1, §2, §3
Escherichia coli ATCC 25922

[5] = tested on: Haemophilus influenza ATCC 35056; assay: MIC, 2-fold dilution method in micro-well plate, H. influenzae; settings: H. influenzae ATCC35056, 37° C.; read-out: Minimum Inhibitory Concentration
Protocol: as §1, §2, §3
Haemophilus influenza ATCC 35056

[6] = tested on: Klebsiella pneumoniae ATCC 13883; assay: MIC, 2-fold dilution method in micro-well plate, K. pneumoniae
Protocol: as §1, §2, §3
Klebsiella pneumoniae ATCC 13883

[7] = tested on: Proteus vulgaris ATCC 13315; assay: MIC, 2-fold dilution method in micro-well plate, P. vulgaris
Protocol: as §1, §2, §3
Proteus vulgaris ATCC 13315

[8] = tested on: Pseudomonas aeruginosa ATCC 27853; assay: MIC, 2-fold dilution method in micro-well plate, P. aeruginosa
Protocol: as §1, §2, §3
Pseudomonas aeruginosa ATCC 27853

[9] = tested on: Salmonella typhimurium ATCC 14028; assay: MIC, 2-fold dilution method in micro-well plate, S. typhimurium; settings: Salmonella enterica, read-out: Minimum Inhibitory Concentration
Protocol: as §1, §2, §3
Salmonella typhimurium ATCC 14028

[10] = tested on: Shigella flexneri ATCC 12022; assay: MIC, 2-fold dilution method in micro-well plate, S. flexneri; settings: S. flexneri ATCC12022, 37° C., read-out: Minimum Inhibitory Concentration
Protocol: as §1, §2, §3
Shigella flexneri ATCC 12022

[11] = tested on: Shigella sonnei ATCC 25931; assay: MIC, 2-fold dilution method in micro-well plate, S. sonnei; settings: S. sonnei ATCC25931, 37° C., read-out: Minimum Inhibitory Concentration
Protocol: as §1, §2, §3
Shigella sonnei ATCC 25931

[12] = tested on: Serratia marcescens ATCC 8100; assay: MIC, 2-fold dilution method in micro-well plate, S. marcescens
Protocol: as §1, §2, §3
Serratia marcescens ATCC 8100

[13] = tested on: Streptococcus faecalis ATCC 19433; assay: MIC, 2-fold dilution method in micro-well plate, S. faecalis ATCC 19433; settings: Enterococcus faecalis; S. faecalis ATCC19433, 37° C.; read-out: Minimum Inhibitory Concentration
Protocol: as §1, §2, §3
Streptococcus faecalis ATCC 19433

[14] = tested on: Streptococcus faecalis ATCC 29212; assay: MIC, 2-fold dilution method in micro-well plate, S. faecalis ATCC 29212; settings: Enterococcus faecalis; S. faecalis ATCC29212, 37° C.; read-out: Minimum Inhibitory Concentration
Protocol: as §1, §2, §3
Streptococcus faecalis ATCC 29212

[15] = tested on: Streptococcus pneumoniae ATCC 6303; assay: MIC, 2-fold dilution method in micro-well plate, S. pneumoniae; settings: S. pneuinoniae ATCC6303, 37° C., read-out: Minimum Inhibitory Concentration
Protocol: as §1, §2, §3
Streptococcus pneumoniae ATCC 6303

[16] = tested on: Streptococcus pyrogens ATCC 19615; assay: MIC, 2-fold dilution method in micro-well plate, S. pyrogens; settings: S. pyrogenes ATCC19615, 37° C., read-out: Minimum Inhibitory Concentration
Protocol: as §1, §2, §3
Streptococcus pyrogens ATCC 19615

[17] = A. calcoaceticus ATCC8090 (as in tables), 37° C., read-out: Minimum Inhibitory Concentration
[18] = C. freundii ATCC8090, 37° C., read-out: Minimum Inhibitory Concentration
[19] = E. aerogenes ATCC13048, 37° C., read-out: Minimum Inhibitory Concentration
[20] = E. cloacae ATCC23355 (as in tables), 37° C.
[21] = E. coli ATCC25922, 37° C., read-out: Minimum Inhibitory Concentration
[22] = K. pneumoniae ATCC13883, 37° C., read-out: Minimum Inhibitory Concentration
[23] = P. vulgaris ATCC13315, 37° C., read-out: Minimum Inhibitory Concentration
[24] = P. aerugirnosa ATCC27853, 37° C., read-out: Minimum Inhibitory Concentration
[25] = S. typhisurium ATCC14028, 37° C.
[26] = S. marcescens ATCC8100, 37° C., read-out: Minimum Inhibitory Concentration
[27] = ATCC8090, read-out: Minimum Inhibitory Concentration
[28] = ATCC13048, read-out: Minimum Inhibitory Concentration
[29] = ATCC25922, read-out: Minimum Inhibitory Concentration
[30] = ATCC13883, read-out: Minimum Inhibitory Concentration
[31] = ATCC13315, read-out: Minimum Inhibitory Concentration
[32] = ATCC8100, read-out: Minimum Inhibitory Concentration

Structure (SMILES)	MIC [1, 17] [µg/mL]	MIC [2, 18] [µg/mL]	MIC [3, 19] [µg/mL]	MIC (Enterobacter cloacae; [20]) [µg/mL]	MIC [4, 21] [µg/mL]	MIC [5] [µg/mL]	MIC [6, 22] [µg/mL]	MIC [7, 23] [µg/mL]	MIC [8, 24] [µg/mL]	MIC [9, 25] [µg/mL]	MIC [10] [µg/mL]	MIC [11] [µg/mL]	MIC [12, 26] [µg/mL]	MIC [13] [µg/mL]	MIC [14] [µg/mL]	MIC [15] [µg/mL]	MIC [16] [µg/mL]	MIC (Enterobacter cloacae) [µg/mL]	MIC [7, 31] [µg/mL]	MIC [9] [µg/mL]	also measured
Cl.NC1CCN(c2c(F)cc3c(=O)c(C(=O)O)cn(-c4ccc(F)cn4)c3c2F)C1 (centres unmarked) [Example 27, 1-(5-fluoro-2-pyridyl)-6,8-difluoro-7-(3-amino-1-pyrrolidinyl)-1,4-dihydro-4-oxoquinoline-3-carboxylic acid hydrochloride]	0.313	0.156	0.156	0.313	0.078	0.078	0.156	0.156	0.313	0.078	0.078	0.005	0.313	1.25	2.5	2.5	2.5	–	–	–	–
CC1CN(c2c(F)cc3c(=O)c(C(=O)O)cn(-c4ccc(F)cn4)c3c2F)CCN1.Cl (centres unmarked) [Example 25, 1-(5-fluoro-2-pyridyl)-6,8-difluoro-7-(3-methyl-1-piperazinyl)-1,4-dihydro-4-oxoquinoline-3-carboxylic acid hydrochloride]	1.25	–	–	–	–	0.625	–	–	0.313	–	0.156	0.156	1.25	5	5	5	10	0.625	0.625	0.625	MIC [2, 27]: 0.625 µg/mL; MIC [3, 28]: 0.625 µg/mL; MIC [4, 29]: 0.625 µg/mL; MIC [6, 30]: 0.625 µg/mL
Cl.O=C(O)c1cn(-c2ccc(F)cn2)c2c(F)c(N3CCNCC3)c(F)cc2c1=O [Example 23, 1-(5-fluoro-2-pyridyl)-6,8-difluoro-7-(1-piperazinyl)-1,4-dihydro-4-oxoquinoline-3-carboxylic acid hydrochloride]	1.25	–	–	–	–	0.625	1.25	–	1.25	–	0.313	0.078	–	5	5	2.5	5	0.625	0.313	0.313	MIC [2, 27]: 0.625 µg/mL; MIC [3, 28]: 0.625 µg/mL; MIC [4, 29]: 0.625 µg/mL; MIC [12, 32]: 0.625 µg/mL
CC1CN(c2nc3c(cc2F)c(=O)c(C(=O)O)cn3-c2ccc(F)cn2)CC(C)N1.Cl (centres unmarked) [Example 15, 1-(5-fluoro-2-pyridyl)-6-fluoro-7-(3,5-dimethyl-1-piperazinyl)-1,4-dihydro-4-oxo-1,8-naphthyridine-3-carboxylic acid hydrochloride]	0.625	–	1.25	0.625	0.625	2.5	0.625	1.25	1.25	1.25	0.313	0.078	1.25	5	5	10	10	–	–	–	MIC [2, 27]: 0.313 µg/mL
CN1CCN(c2nc3c(cc2F)c(=O)c(C(=O)O)cn3-c2ccncc2F)CC1.Cl [Example 8, 1-(3-fluoro-4-pyridyl)-6-fluoro-7-(4-methyl-1-piperazinyl)-1,4-dihydro-4-oxo-1,8-naphthyridine-3-carboxylic acid hydrochloride]	1.25	1.25	–	–	–	0.625	–	–	–	–	0.313	0.625	–	5	5	5	10	0.625	0.313	0.313	MIC [3, 28]: 0.625 µg/mL; MIC [4, 29]: 0.313 µg/mL; MIC [6, 30]: 0.625 µg/mL; MIC ([8]; ATCC27853, read-out: Minimum Inhibitory Concentration): 0.625 µg/mL; MIC [12, 32]: 0.625 µg/mL
Cl.NC1CCN(c2nc3c(cc2F)c(=O)c(C(=O)O)cn3-c2ccc(F)cn2)C1 (centres unmarked) [Example 16, 1-(5-fluoro-2-pyridyl)-6-fluoro-7-(3-amino-1-pyrrolidinyl)-1,4-dihydro-4-oxo-1,8-naphthyridine-3-carboxylic acid hydrochloride]	0.156	0.078	0.313	0.156	0.078	0.078	0.078	0.078	0.156	0.313	0.039	0.02	0.078	1.25	0.625	1.25	2.5	–	–	–	–
Cl.O=C(O)c1cn(-c2ccncc2F)c2cc(N3CCNCC3)c(F)cc2c1=O [Example 1, 1-(3-fluoro-4-pyridyl)-6-fluoro-7-(1-piperazinyl)-1,4-dihydro-4-oxoquinoline-3-carboxylic acid hydrochloride]	–	1.25	1.25	–	1.25	0.625	–	–	0.625	–	0.625	0.625	0.313	5	5	2.5	5	0.625	0.625	0.625	MIC [1, 27]: 0.625 µg/mL; MIC [6, 30]: 0.625 µg/mL

From patent US5496947A, “Quinolone carboxylic acid derivatives” (Dong Wha Pharmaceutical Industrial Co., Ltd., priority 1994, dated 1996)
